Assay results as given in US11491105B2, “Methods of treating microbial infections, including mastitis” (priority 2013, dated 2022).
≈ marks a conversion by molar mass, not a printed value.

What was measured:
[1] = dogs; cited from earlier work
[2] = system: bovine mastitis isolates; assay: Minimum inhibitory concentration assay (Example 3); assay type: cell-based
Excerpt: Fifty-one dairy bovine mastitis isolates, encompassing a variety of bacterial species, were isolated from milk samples collected from dairy farms in rural South Australia by the University of Adelaide Ambulatory Clinic. Cellular morphology observed from Gram stains and catalase testing was used to differentiate Staphylococcus, Streptococcus and Corynebacterium species from Gram-negative species. Further biochemical testing including coagulase, Lancefield grouping, esculin hydrolysis and CAMP tests were used to identify the isolates to species level. Where biochemical test results were not definitive in identifying species, amplification and sequencing of the 16S ribosomal RNA gene was used to confirm the identity of the isolates.
Minimum inhibitory concentration tests were performed in the manner outlined by the CLSI (CLSI 2012). Test compounds were dispensed into a 96-well microtitre tray containing 90 μl of CAMHB in 90 μl volumes and serial diluted to obtain a concentration gradient ranging from 128 μg/ml to 0.25 μg/ml (see FIG. 24). For Streptococcus species, CAMHB was replaced with a CAMHB supplement with 4% lysed-sheep blood (4% LSB:CAMHB). 4% LSB:CAMHB was prepared by mixing 5 ml sheep blood to 5 ml milliQ water, and repeated freezing at −20° C. and thawing, followed by centrifuged for 20 min at 7000 rpm. 7 ml of the supernatant was removed and added to 93 mL of CAMB.
Bacterial suspensions were prepared by emulsifying fresh colonies obtained from an overnight culture on Sheep Blood Agar (SBA) in 4 mls of 9.1 g/l physiological saline to an optical density read at 600 nm (OD600nm) between 1.00 and 1.20. Standardised bacterial suspensions were diluted 1:10 in physiological saline and dispensed into all wells, excluding the negative control wells, in 10 μL volumes giving a final concentration of between 4×10^5 and 5×10^5 CFU/mL in each well. 96-well microtitre trays were incubated for 24 hours at 37° C. in 5% CO2 and then assessed both visually and using OD readings from a microplate reader at a wavelength of 600 nm. These tests were performed in duplicate and repeated if discrepancies in MIC values were observed between replicates.
The minimum inhibitory concentration (MIC) was determined to be the lowest concentration of antibiotic that prevented growth of bacteria both visually and using OD readings. MIC values were collated and used to determine the lowest concentration of each compound effective against 50% and 90% of isolates, known as the MIC50 and MIC90 respectively. These values as well as the range of MIC values were then used for direct comparisons between test compounds and for general comparisons with ampicillin.

[3] = system: Staphylococcus isolates (methicillin-sensitive and methicillin-resistant); assay: Minimum inhibitory concentration assay (Example 1); assay type: cell-based; details: for MIC50 and MIC90 values compared with ampicillin: methicillin-resistant isolates
Description: Forty-two isolates of Staphylococcus of varying species and strain type were collected from isolate collections. Biochemical testing including coagulase, latex agglutination testing for protein A, Vogues-Proskauer tests and resistance to polymyxin B were used to identify the species of Staphylococcus. All isolates were also screened for resistance to various antimicrobials commonly used for the treatment of infections. This was performed using the disk diffusion method and resistance standards as outlined by the CLSI. The following antimicrobials were used: amoxicillin-clavulanic acid (30 μg), cephalothin (30 μg), clindamycin (2 μg), enrofloxacin (5 μg), erythromycin (15 μg), gentamicin (10 μg), imipenem (10 μg), oxacillin (1 μg), penicillin G (10 units), tetracycline (30 μg), 1:19 trimethoprim-sulfamethoxazole (25 μg) and vancomycin (30 μg).
Minimum inhibitory concentration tests were performed according to CLSI Standards (CLSI 2012). 90 μL of one of the test compound solutions, or ampicillin, was added to the end column of a 96 well plate that contained 90 μL of CAMHB in each well. The solutions were then serially diluted across the row, leaving 2 columns for positive and negative controls (FIG. 2). A bacterial suspension was prepared by adding fresh colonies obtained from an overnight culture on Sheep Blood Agar (SBA) to a 9.1 g/L saline solution. This suspension was adjusted to a concentration of between 4×10^8 and 5×10^8 CFU/mL. Concentration of the suspension was determined by measuring optical density (OD) using a spectrophotometer at a wavelength of 600 nm where the correct concentration was determined to have an optical density of between 1.00 and 1.20. 1 mL of this suspension was added to 9 mL of saline before being added to all wells, excluding the negative control wells, in 10 μL volumes giving a final concentration of between 4×10^5 and 5×10^5 CFU/mL in each well. The tests were then incubated for 24 hours at 37° C. and then assessed both visually and using OD readings from a microplate reader at a wavelength of 600 nm. These tests were performed in duplicate but repeated if discrepancies were observed.
The minimum inhibitory concentration (MIC) was determined to be the lowest concentration of antibiotic that prevented growth of bacteria both visually and using OD readings. Direct statistical comparisons between the test compounds and ampicillin could not be performed in light of confidential information restrictions, such as restrictions on disclosure of information relating to the compound structure, such as molecular weight. Instead, MIC values were collated and used to determine the lowest concentration of each compound that was effective against 50% and 90% of isolates, referred to as the MIC50 and MIC90 respectively. These values as well as the range of MIC values were then used for direct comparisons between test compounds and for general comparisons with ampicillin.

[4] = humans; cited from earlier work
[5] = accidental inhalation and swallowing of about 1 mg/kg, human; cited from earlier work
[6] = system: Staphylococcus isolates (methicillin-sensitive and methicillin-resistant); assay: Minimum bactericidal concentration determination (Example 1); assay type: cell-based; details: for bactericidal activity (MBC testing): methicillin-sensitive and methicillin-resistant strains
Description: Following determination of the MIC using the 96 well MIC plate, a variation of the drop plate method was used to determine minimum bactericidal concentration (MBC) for each of the test compounds. These were analysed using samples taken from the MIC plate following incubation. For each compound, a 10 μL drop of each concentration equal to or higher than the MIC was pipetted onto Sheep Blood Agar in a clockwise manner (FIG. 3). Each concentration was pipetted in duplicate with duplicates being pipetted on an inner ring of drops. The plates were incubated at 37° C. overnight and assessed the following day for growth. The MBC was defined as the concentration at which 99.9% of colonies were eradicated, which was visually assessed by a lack of growth on the agar where the drop was placed. […] The MBC values for 50% and 90% of the isolates (MBC50 and MBC90) were calculated and assessed along with the MBC range in order to select compounds for further study.

[7] = Dilution in Cation Adjusted Mueller Hinton Broth; assay type: physicochemical
Description: For each of the five test compounds, a […] stock solution was created by dissolving 2.56 grams of compound in 10 ml of dimethyl sulfoxide (DMSO). The resulting solution was then aliquoted into 500 μL volumes and stored at −80° C. A […] stock solution of ampicillin was also created by dissolving 0.303 grams of ampicillin (Sigma A-0166) in 10 ml of DMSO. This solution was aliquoted and stored in the same manner as the five test compounds. When these compounds were required, a 256 μg/ml working solution was created by diluting 100 μl of stock solution (25.6 mg/ml) in 9.9 ml of Cation-Adjusted Mueller Hinton Broth (CAMHB)
LP4525 had the most consistent MIC values for all isolates, and this is evidenced by the small MIC range. LP4525 also has a lower MIC90 value compared to all compounds.

[8] = system: MRSA 9; assay: Macrodilution time-kill assay; assay type: cell-based, Staphylococcus aureus; details: 24 hours
Description: (§1) Due to the detection limit of the OD measurements, the time-kill assays were also performed in macrodilution. In 15 mL tubes, 9 mL volumes of the test compounds in CAMHB were prepared at one, four and eight times the MIC concentration and 9 mL volumes of ampicillin were prepared in CAMHB at one and four times the MIC. 1 mL of a 4 to 5×10^6 bacterial suspension (as prepared for MIC testing) was added to each of the tubes as well as a growth control tube containing only 9 mL of CAMHB. These tubes were incubated at 37° C. in an orbital shaker rotating at 100 rpm for 24 hours. At 0, 1, 4, 8, 12 and 24 hours after addition of the bacteria, 100 μL samples were removed from each tube and serial diluted in 9.1 g/L saline solution. The dilutions were then plated in duplicate onto plate count agar and incubated for 24 hours at 37° C. After incubation, viable counts were obtained from the number of colonies visible on the agar and these were used to calculate the number of CFU/mL at each time point. For the macrodilution time-kill analysis, only the ATCC 49775 reference strain and MRSA 9 were assessed in order to further investigate the antibacterial activity against methicillin-resistant strains. These macrodilution time-kill assays were independently repeated and bactericidal activity was defined as a ≥3 log decrease in the number of CFU/mL.

[9] = system: ATCC 49775 reference strain; assay: Macrodilution time-kill assay; assay type: cell-based, Staphylococcus; details: 24 hours
Description: as §1

[10] = system: MRSA 9; assay: Microdilution time-kill assay; assay type: cell-based, Staphylococcus aureus; details: 48 hours
Description: Following assessment of MIC and MBC results, two compounds were chosen for analysis using microdilution time-kill assays, LP 1369 and LP 6315 and these were compared to ampicillin. Time-kill assays were performed according to the M26-A guidelines of the CLSI, with modifications. The test compounds and ampicillin were serial diluted in CAMHB across the rows of a 96 well plate and a bacterial suspension was prepared and added in the same manner as the MIC testing. […] The time points assessed were 0, 1, 2, 4, 8, 12, 24 and 48 hours after the addition of the bacterial suspension to the wells. Each test compound was tested in triplicate while ampicillin was tested in duplicate and this test was independently repeated. The bacterial strains used for the microdilution assays were chosen based on bactericidal activity evident during MBC testing. One strain from each of the categories of Staphylococcus in the isolate collection (methicillin-sensitive, methicillin resistant and coagulase negative) were selected as well as the ATCC reference strain for comparison. These strains were strains MSS 1, MSS 11, MRSA 9 and the ATCC 49775 reference strain.

[11] = 51 Australian bovine mastitis isolates

Compound	daily intake that leads to neurotoxic effects (myelin loss, axonal degeneration) [1]	MIC values (in words) [2]	antibacterial activity against the bovine mastitis isolates [2]	MIC90 [2, 11]	MIC50 and MIC90 values compared with ampicillin [3]	acceptable daily intake (ADI) [4]	toxicity after accidental exposure [5]	strains against which bactericidal activity was exhibited more consistently [6]	bactericidal activity (MBC testing) [6]	MIC90 values for each of the groups of mastitis pathogens (in words) ([2]; compared with the other compounds)	turbidity or precipitate upon dilution [7]	MIC90 value and MIC range (in words) ([3]; all strains)	bactericidal or bacteriostatic (>=3 log decrease in CFU/mL = bactericidal) ([8]; LP 6315: most concentrations)	decrease in the number of viable bacteria ([8]; all concentrations tested)	bactericidal or bacteriostatic (>=3 log decrease in CFU/mL = bactericidal) ([9]; LP 6315: most concentrations)	decrease in the number of viable bacteria ([9]; all concentrations tested)	resulting growth after 48 hours [10]	MIC50 [2, 11]
CC[C@@H](C(=O)[C@@H](C)[C@@H](O)[C@H](C)[C@@H]1O[C@@H]([C@@H](CC)C(=O)O)CC[C@@H]1C)[C@H]1O[C@]2(C=C[C@@H](O)[C@]3(CC[C@@](C)([C@H]4CC[C@](O)(CC)[C@H](C)O4)O3)O2)[C@H](C)C[C@@H]1C [LP 1088, Salinomycin]	more than 500 μg/kg	low MIC values	observed	2 µg/mL (≈ 2.66 µM)	considerably lower than ampicillin	5 µg/kg	severe acute and chronic salinomycin toxicity	methicillin-sensitive strains	some bactericidal activity in lower concentrations	–	–	–	–	–	–	–	–	–
CC[C@@]1([C@@H]2O[C@@H]([C@H]3O[C@@](O)(CO)[C@H](C)C[C@@H]3C)C[C@@H]2C)CC[C@H]([C@]2(C)CC[C@]3(C[C@H](O)[C@@H](C)[C@@H]([C@@H](C)[C@@H](OC)[C@H](C)C(=O)O)O3)O2)O1 [LP 9666, Monensin]	–	–	observed	128 µg/mL (≈ 191 µM)	considerably lower than ampicillin	–	–	–	–	significantly higher	large amount of precipitate	high MIC90 value and broad MIC range	–	–	–	–	–	–
CC1(C)S[C@@H]2[C@H](NC(=O)[C@H](N)c3ccccc3)C(=O)N2[C@H]1C(=O)O [ampicillin]	–	–	–	–	–	–	–	–	–	–	–	–	bactericidal	> 3 log10	bactericidal	> 3 log10	comparable to the growth control	–
Narasin [LP 4525]	–	low MIC values	observed	1 µg/mL	considerably lower than ampicillin	–	–	methicillin-sensitive strains	some bactericidal activity in lower concentrations	–	–	–	–	–	–	–	–	0.25 µg/mL
